Legend:
Assay in all cases: drug sensitivity score (DSS3, normalised partial AUC of % inhibition dose-response) (DSS (score)); higher = more sensitive (stronger inhibition of viability); extreme values may be limits of the assay
[1] = test system: FMOC06 (patient-derived mucinous ovarian cancer cells); conditions: 72 h; library: FO5A; assay format: 2D, 384-well, CellTiter-Glo
Summary of the method: (§1)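 On 384-well flat clear-bottom plates carrying compounds at five concentrations across a 10,000-fold range, patient-derived ovarian cancer cells below passage 10 were incubated for 72 h at 37 °C with 5% CO2. CellTiter-Glo readout of viability was processed in Breeze. A higher drug sensitivity score, defined as the partial area under the percent-inhibition dose-response curve divided by the log of the upper asymptote, means greater sensitivity.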

[2] = test system: FMOC09 (patient-derived high-grade serous ovarian cancer cells); conditions: 72 h; library: FO5A; assay format: 2D, 384-well, CellTiter-Glo
Summary of the method: as §1

[3] = test system: FMOC25_1 (patient-derived low-grade serous ovarian cancer cells); conditions: 72 h; library: FO4B; assay format: 2D, 384-well, CellTiter-Glo
Summary of the method: as §1

[4] = test system: FMOC11 (patient-derived high-grade serous ovarian cancer cells); conditions: 72 h; library: FO5A; assay format: 2D, 384-well, CellTiter-Glo
Summary of the method: as §1

[5] = test system: FMOC14 (patient-derived high-grade serous ovarian cancer cells); conditions: 72 h; library: FO5A; assay format: 2D, 384-well, CellTiter-Glo
Summary of the method: as §1

[6] = test system: FMOC04 (patient-derived high-grade serous ovarian cancer cells); conditions: 72 h; library: FO5A; assay format: 2D, 384-well, CellTiter-Glo
Summary of the method: as §1

[7] = test system: FMOC17 (patient-derived low-grade serous ovarian cancer cells); conditions: 72 h; library: FO5A; assay format: 2D, 384-well, CellTiter-Glo
Summary of the method: as §1

[8] = test system: FMOC02_3 (patient-derived low-grade serous ovarian cancer cells); conditions: 72 h; library: FO5A; assay format: 2D, 384-well, CellTiter-Glo
Summary of the method: as §1

[9] = test system: FMOC02_1 (patient-derived low-grade serous ovarian cancer cells); conditions: 72 h; library: FO5A; assay format: 2D, 384-well, CellTiter-Glo
Summary of the method: as §1

[10] = test system: FMOC27 (patient-derived low-grade serous ovarian cancer cells); conditions: 72 h; library: FO5A; assay format: 2D, 384-well, CellTiter-Glo
Summary of the method: as §1

[11] = test system: FMOC28 (patient-derived low-grade serous ovarian cancer cells); conditions: 72 h; library: FO5A; assay format: 2D, 384-well, CellTiter-Glo
Summary of the method: as §1

[12] = test system: FMOC03 (patient-derived mucinous ovarian cancer cells); conditions: 72 h; library: FO5A; assay format: 2D, 384-well, CellTiter-Glo
Summary of the method: as §1

[13] = test system: FMOC25_2 (patient-derived low-grade serous ovarian cancer cells); conditions: 72 h; library: FO5A; assay format: 2D, 384-well, CellTiter-Glo
Summary of the method: as §1

[14] = test system: FMOC24 (patient-derived high-grade serous ovarian cancer cells); conditions: 72 h; library: FO5A; assay format: 2D, 384-well, CellTiter-Glo
Summary of the method: as §1

[15] = test system: FMOC02_2 (patient-derived low-grade serous ovarian cancer cells); conditions: 72 h; library: FO5A; assay format: 2D, 384-well, CellTiter-Glo
Summary of the method: as §1

[16] = test system: FMOC22 (patient-derived mucinous ovarian cancer cells); conditions: 72 h; library: FO5A; assay format: 2D, 384-well, CellTiter-Glo
Summary of the method: as §1

Row | SMILES | drug sensitivity score [1] | drug sensitivity score [2] | drug sensitivity score [3] | drug sensitivity score [4] | drug sensitivity score [5] | drug sensitivity score [6] | drug sensitivity score [7] | drug sensitivity score [8] | drug sensitivity score [9] | drug sensitivity score [10] | drug sensitivity score [11] | drug sensitivity score [12] | drug sensitivity score [13] | drug sensitivity score [14] | drug sensitivity score [15] | drug sensitivity score [16]
1 | CC(=O)O[C@]1(C(C)=O)CC[C@H]2[C@@H]3C=C(C)C4=CC(=O)CC[C@]4(C)[C@H]3CC[C@@]21C [Megestrol acetate] | 0.4 | 0 | 0 | 0 | 0 | 0 | 0 | 0 | 0.3 | 4.6 | 1 | 0.2 | 0 | 0 | 0 | 0
2 | NC1(c2ccc(-c3nc4ccn5c(=O)[nH]nc5c4cc3-c3ccccc3)cc2)CCC1 [MK-2206] | 4.8 | 2.7 | 4.9 | 0.9 | 2 | 1.75 | 4.2 | 6.9 | 4.9 | 1.5 | 5.5 | 2.5 | 3 | 1.5 | 7.5 | 0.8
3 | Oc1ncnc2[nH]ncc12 [Allopurinol] | 0 | 0 | 1.3 | 0 | 0 | 0 | 0 | 0 | 0 | 0 | 0 | 0 | 0 | 0 | 0 | 0
4 | CC(C)(C)NC(=O)[C@H]1CC[C@H]2[C@@H]3CC[C@H]4NC(=O)C=C[C@]4(C)[C@H]3CC[C@]12C [Finasteride] | 0 | 0 | 0 | 0 | 0 | 0 | 0 | 0 | 0 | 0 | 0 | 0 | 0 | 1.1 | 0 | 0
5 | CNCc1ccc(-c2[nH]c3cc(F)cc4c3c2CCNC4=O)cc1 [Rucaparib] | 0 | 0 | 0.5 | 0 | 0.3 | 0 | 3.6 | 3.1 | 2.1 | 1.7 | 1.9 | 0 | 2.4 | 12.9 | 2.1 | 0
6 | C[C@]12C=CC(=O)C=C1CC[C@@H]1[C@@H]2[C@@H](O)C[C@@]2(C)[C@H]1CC[C@]2(O)C(=O)CO [Prednisolone] | 0.7 | 0 | 0 | 0 | 0 | 0 | 0 | 0 | 0.1 | 0 | 0 | 0 | 0 | 0.65 | 0 | 0
7 | Nc1nc(Nc2ccc3c(c2)CC[C@@H](N2CCCC2)CC3)nn1-c1cc2c(nn1)-c1ccccc1CCC2 [BGB324] | 3.7 | 0.9 | 5.1 | 4.4 | 6.2 | 5.35 | 3.8 | 7.6 | 7.2 | 0.3 | 0.8 | 2.4 | 2.7 | 7.9 | 5 | 1.7
8 | O=C(Nc1nc2cccc(-c3ccc(CN4CCS(=O)(=O)CC4)cc3)n2n1)C1CC1 [Filgotinib] | 1.3 | 0.4 | 1.9 | 0 | 0 | 0 | 3.3 | 6.1 | 2.6 | 5 | 5.2 | 0 | 3.9 | 3.1 | 2.9 | 0
9 | Nc1cccc2c1CN(C1CCC(=O)NC1=O)C2=O (centres undefined) [Lenalidomide] | 0.1 | 0 | 0 | 0 | 0 | 0 | 0 | 2.4 | 0 | 0 | 0 | 0 | 0 | 0.6 | 0 | 0
10 | Nc1ncn([C@H]2C[C@H](O)[C@@H](CO)O2)c(=O)n1 [Decitabine] | 0.4 | 0 | 0 | 5.3 | 0 | 0 | 0.9 | 0.6 | 0.3 | 7.5 | 0 | 0 | 1.5 | 7.4 | 1.4 | 0.1
11 | CC(C)(C#N)c1cc(Cn2cncn2)cc(C(C)(C)C#N)c1 [Anastrozole] | 0 | 0 | 0 | 0 | 0 | 0 | 0 | 0 | 0 | 0 | 0 | 0 | 0 | 0 | 0 | 0
12 | NC(=O)c1cccc2cn(-c3ccc([C@@H]4CCCNC4)cc3)nc12 [Niraparib] | 1.5 | 1.6 | 1.5 | 1.4 | 0 | 0.55 | 0 | 6.6 | 4.2 | 3.2 | 5.4 | 0 | 4.8 | 5.55 | 2.6 | 1.9
13 | COc1nc(N)nc2c1ncn2[C@@H]1O[C@H](CO)[C@@H](O)[C@@H]1O [Nelarabine] | 1.7 | 0 | 0 | 0 | 0 | 0 | 0 | 0 | 0 | 0 | 0 | 0 | 0 | 1.75 | 0 | 0
14 | Cc1c(C(=O)Nc2ccc(N3C[C@@H](C)O[C@@H](C)C3)nc2)cccc1-c1ccc(OC(F)(F)F)cc1 [Sonidegib] | 0 | 0.1 | 0 | 0.4 | 0 | 0 | 3 | 1.3 | 2.1 | 0 | 2.1 | 0 | 0 | 2.45 | 0.1 | 0
15 | CNC(=O)c1ccc(C)c(-n2c(C)cc(OCc3ccc(F)cc3F)c(Br)c2=O)c1 | 0 | 0 | 0 | 0 | 0 | 0 | 0.3 | 0 | 0 | 0 | 0 | 0 | 0 | 0 | 0 | 0
16 | CCc1cc2c(cc1N1CCC(N3CCOCC3)CC1)C(C)(C)c1[nH]c3cc(C#N)ccc3c1C2=O [Alectinib] | 0.2 | 0 | 0.1 | 0.7 | 0 | 0 | 0.8 | 0.6 | 1.7 | 1.2 | 1.7 | 0.3 | 0 | 0.3 | 1.5 | 0
17 | Cc1cccc(-c2nn3c(c2-c2ccnc4ccc(C(N)=O)cc24)CCC3)n1 [Galunisertib] | 0 | 0 | 0 | 0 | 0 | 0 | 0 | 0 | 0 | 0 | 0 | 0 | 0 | 0.35 | 0 | 0
18 | Nc1nccc(-c2c(-c3ccc(F)cc3)ncn2C2CCCCC2)n1 | 0.1 | 0 | 1.7 | 2.5 | 0.2 | 0.05 | 1.6 | 1.1 | 4.9 | 1 | 6.9 | 1.6 | 1.8 | 0.85 | 3.4 | 0.4
19 | COC(=O)N[C@@H](C)CNc1nccc(-c2cn(C(C)C)nc2-c2cc(Cl)cc(NS(C)(=O)=O)c2F)n1 [Encorafenib] | 0 | 0 | 0.2 | 0 | 0 | 0 | 0 | 0.9 | 4.2 | 0 | 0 | 0 | 3.3 | 0 | 0 | 0
20 | Cn1nnc2c(C(N)=O)ncn2c1=O [Temozolomide] | 0 | 0 | 0 | 0 | 0 | 0 | 0.2 | 0 | 0 | 0 | 0.8 | 0 | 0 | 0 | 0 | 0
21 | CC1=C(/C=C/C(C)=C/C=C/C(C)=C/C(=O)O)C(C)(C)CCC1 [Tretinoin] | 0.1 | 0 | 0 | 2 | 0 | 0 | 0 | 5.2 | 0 | 0 | 0 | 0 | 0.2 | 0 | 0 | 0
22 | Nc1nc(OCc2cc(Br)cs2)c2[nH]cnc2n1 [Lomeguatrib] | 0 | 0 | 0 | 0 | 0 | 0 | 0 | 0.4 | 0 | 0 | 2.6 | 0 | 1.4 | 0 | 0.8 | 0
23 | CN1CCN(C2CCN(C(=O)Nc3cc(Oc4ccc(NC(=O)C5(C(=O)Nc6ccc(F)cc6)CC5)c(F)c4)ccn3)CC2)CC1 [Golvatinib] | 0 | 0 | 0.9 | 0 | 0 | 0.7 | 0.2 | 2.2 | 1.2 | 0 | 0 | 0.5 | 4.3 | 3.35 | 1.2 | 0
24 | CCc1c(C(=O)C(N)=O)c2c(OCC(=O)O)cccc2n1Cc1ccccc1 [Varespladib] | 0 | 0 | 0 | 0 | 0 | 0 | 0 | 0 | 0 | 0 | 0 | 0 | 0 | 0.1 | 0 | 0
